From patent US20220133701A1, “METHODS OF TREATING PAIN” (Yeda Research and Development Co. Ltd., priority 2019, published 2022)

Experiments:
mice [1] = assay: Response to noxious heat (metal probe heated to 58° C. applied to paw, paw withdrawal latency); type: in vivo, mouse
Procedure: Pain Models—Responses to noxious heat were assessed by applying a metal probe heated to 58° C. to a forelimb paw, while holding the animal. Paw withdrawal latency was timed, typically ranging between 2-4 seconds in wild-type animals. If the paw was not withdrawn within 20 seconds the assay was terminated. The test was repeated three times for each animal, with at least 20 minute intervals between repeats. Heat sensitivity was also assessed using the hot plate test [L. Urien et al., Sci Rep 7, 43493 (2017)]. To this end, mice were placed individually in a 20 cm high Plexiglas box on a metal surface set at 52, 55 or 58° C., and the latency to initiate a nociceptive response (licking, hind paws shaking, jumping) was monitored by videotape. Mice were removed from the plate immediately after a nociceptive response.

importin α3 = assay: Western blot of importin α3 in HEK cells transduced with AAV9 constructs; type: cell-based; details: shα3 vs shCtrl, α3OE vs GFP (FIGS. 3A-C)
Procedure: Transfection and Western blot analysis: Knockdown and overexpression constructs were tested in HEK or N2A cells transfected using JetPEI (Polyplus) according to manufacturer's instructions and lysed 48 hours later in RIPA buffer supplemented with protease inhibitors (Complete, Roche). For Western blot analysis, 5 μg of protein was separated on TGX Protean 5-15% gradient gels (Biorad) and transferred to nitrocellulose membranes. Membranes were blocked with 5% dried milk-TBST and probed overnight with an importin α3 antibody (1:5000) and GAPDH (MAB374, Millipore, 1:5000) as a loading control in 2% milk-TBST, followed by an anti-mouse HRP-conjugated antibody (#1706516 Biorad). Chemiluminescence was detected with Amersham Imager 600 and band intensities were quantified using the built-in software. AAV production and intrathecal injection: Purified adeno-associated virus (AAV) or the peripheral neuron specific PHP.S (AAV-PHP.S) [K. Y. Chan et al., Nat Neurosci 20, 1172-1179 (2017)] was produced in HEK 293T cells (ATCC®), with the AAVpro® Purification Kit (All Serotypes) from TaKaRa (#6666). For each construct ten 15 cm plates were transfected with 20 μg of DNA (AAV-plasmid containing the construct of interest and two AASV9 or AAV-PHP.S helper plasmids) using jetPEI® (Polyplus) in DMEM medium without serum or antibiotics. […]

SNI mice = assay: CatWalk gait analysis (footprint width) in SNI mice; type: in vivo, mouse; details: AAV9 shRNA, 60 days post-injury, vs shCtrl (FIG. 4D)
Procedure: CatWalk gait analysis and training was carried out as previously described [Perry et al. Neuron 75, 294 (2012)]. Motivation was achieved by a combination of food restriction during the initial training and placing of palatable reward at runway ends. The test was repeated three times for each mouse. Data were collected and analyzed using the Catwalk Ethovision XT11 software (Noldus Information Technology, The Netherlands). The analyzed indices are reported for each animal as print area and print width.

mice [2] = assay: Rotarod; type: in vivo, mouse; details: wild-type mice three weeks after intrathecal AAV9 shRNA (FIG. 5B)
Procedure: Rotarod experiments to assess integrity of balance and coordination [Crawley. Neuron 57, 809 (2008)] was carried out using a ROTOR-ROD™ system (83×91×61-SD Instruments, San Diego). Mice were subjected to three trials with 20 minutes inter-trial intervals over three consecutive days, at three weeks and five weeks after AAV9 injection, calculating the daily average each time. Rotarod acceleration was set to 20 rpm in 240 seconds. Latency to fall (sec) was recorded and the average of the three or six consecutive trials was used as an index of motor coordination and balance.

shα3: AAV9 expressing an importin α3 targeting shRNA (SEQ ID NO: 8), intrathecal injection (DNA GATCCGGCTTTGACAAACATTGCATGAAGCTTGATGCAATGTTTGTCAAAGCCTTTTTT)
response to noxious heat (mice [1]; importin α3 knockout (−/−) mice after intrathecal AAV9 construct): No further alteration of the noxious heat response | response to noxious heat (mice [1]; importin α3 knockout (−/−) mice after intrathecal AAV9 construct, listed as anti-importin α3 shRNAs): no further effect on responses to noxious heat | response to noxious heat (mice [1]; wild type mice after intrathecal injection of AAV9 construct, vs control construct): reduced response of WT mice to noxious heat | response to noxious heat (mice [1]; wild type mice after intrathecal injection of AAV9 construct, vs control construct, listed as anti-importin α3 shRNAs): delayed paw withdrawal latency to noxious heat | impα3 protein level (western blot, GAPDH normalized) (importin α3): downregulation | footprint width / paw morphology and gait parameters, Catwalk (SNI mice): significant recovery by 60 days | footprint width / paw morphology and gait parameters, Catwalk (SNI mice; listed as anti-importin α3 shRNA): regained unaltered paw morphology and gait parameters | rotarod (motor coordination) (mice [2]): No deficits were observed in either test | rotarod (motor coordination) (mice [2]; listed as anti-importin α3 shRNAs): no effect
